PMC5500888, “Structural insights into the mechanism of the membrane integral N-acyltransferase step in bacterial lipoprotein synthesis” (Nature Communications, 2017)

Assays:
[1] = molecular target: T1, LntPae (Pseudomonas aeruginosa, UniProt Q9ZI86); assay: SDS-PAGE band shift of FSL-1-biotin with western blot; format: biochemical; details: acyl donor 500 uM; co-substrate FSL-1-biotin 2.5-5 uM; 20 nM enzyme; 0.1% Triton X-100; pH 7.2 or 6.5; 37 C
T1 construct: gene lnt; full-length membrane enzyme, N-terminal thrombin-cleavable His6-tag (pET28a, synthetic gene), expressed in E. coli C41(DE3), purified in LMNG; tag cleavage not described
T1 sequence (Q9ZI86 1-511): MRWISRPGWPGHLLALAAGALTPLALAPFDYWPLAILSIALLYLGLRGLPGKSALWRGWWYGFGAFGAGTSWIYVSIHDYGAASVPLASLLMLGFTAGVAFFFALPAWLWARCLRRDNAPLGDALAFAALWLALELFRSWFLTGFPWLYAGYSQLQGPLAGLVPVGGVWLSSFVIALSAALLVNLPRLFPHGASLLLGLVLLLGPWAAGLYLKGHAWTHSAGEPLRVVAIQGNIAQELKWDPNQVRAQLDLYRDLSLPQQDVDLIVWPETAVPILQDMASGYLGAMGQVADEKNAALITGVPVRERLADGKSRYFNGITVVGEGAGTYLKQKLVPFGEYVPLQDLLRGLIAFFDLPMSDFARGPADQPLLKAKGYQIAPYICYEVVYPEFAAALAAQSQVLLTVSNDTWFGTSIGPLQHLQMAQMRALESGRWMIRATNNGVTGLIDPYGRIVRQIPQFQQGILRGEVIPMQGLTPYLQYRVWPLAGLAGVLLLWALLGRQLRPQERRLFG

[2] = molecular target: T2, LntEco (Escherichia coli, UniProt P23930); assay: TLC with fluorescence of lyso-NBD-PE formed; format: biochemical; details: labelled compound; NBD-PE 500 uM; co-substrate FSL-1 150 uM; 8 uM enzyme; 50 mM Tris-HCl pH 7.5, 150 mM NaCl, 1 mM TCEP, 0.02% LMNG; 37 C
T2 construct: gene lnt; full-length membrane enzyme, N-terminal thrombin-cleavable His6-tag (pET28a, synthetic gene), expressed in E. coli C43(DE3), purified in LMNG; tag cleavage not described

SMILES	SDS-PAGE band shift of FSL-1-biotin with western blot [1]	TLC with fluorescence of lyso-NBD-PE formed [2]
CCCCCCCC/C=C\CCCCCCCC(=O)OC[C@H](COP(=O)(O)OCC(O)CO)OC(=O)CCCCCCC/C=C\CCCCCCCC (some centres unmarked) [DOPG]	When DOPE was replaced with DOPG or DOPC, the product was formed much less efficiently	–
CCCCCCCC/C=C\CCCCCCCC(=O)OC[C@H](COP(=O)(O)OCCN)OC(=O)CCCCCCCCCCCNc1ccc([N+](=O)[O-])c2nonc12 [NBD-PE]	–	Time course of lyso-PE production catalysed by LntEco
